{"source": "patent US4518613A", "about": "“Thioalkanoyl-carnitines, process for their preparation and mucolytic pharmaceutical compositions containing same” (priority 1981, dated 1985)", "key": {"[1]": {"test": "Mucolytic activity in vitro: modification of human sputum density by thromboelastograph (method of Morandini et al.)", "protocol": "The tests were carried out in vitro by using the method disclosed by Morandini et al. (Lotta contro la tubercolosi 47, n. 4, 1977). A thromboelastograph was used to follow the variations induced by the compounds of general formula (I) and acetylcysteine on the rheological properties of human sputum."}, "bronchial secretion": {"test_system": "bronchial secretion", "test": "Expectorant activity: bronchial secretion in anesthetized rabbits (method of Perry et al.)", "type": "in vivo", "conditions": "oral, rabbit, 20 to 40 mg", "protocol": "The tests were carried out on male rabbits, weighing 2-3 Kg, anesthetized with ethyl urethane, by following the method disclosed by Perry et al. (J. Pharm. Exp. Ther. 73, 65, 1941).\nEach cannula was connected to a feeding device which delivered a steady flow-rate of pre-heated air (36°-38° C.) at constant humidity (80%). At the lower end of each cannula, a graduated cylinder was fitted, wherein the bronchial secretion was collected. All of the animals breathed spontaneously and consequently they self-regulated the air intake suitable for normal respiration. After an hour following cannula insertion, the animals were administered oraly (by stomach tube) the compounds of general formula (I) dissolved in distilled water at doses comprised between 20 and 40 mg. […] The control animals (8) were given water only. The amount of secretion was determined after 1, 2 and 4 hours from administration."}, "[2]": {"test": "Acute toxicity, LD50 by the Weil method, e.p. administration in mouse", "conditions": "in vivo, ip, Weil method N = 4, K = 4", "source_text": "LD50 of the compounds of general formula (I) assessed with the Weil method (\"Tables for convenient calculation of median effective dose (LD50 or ED50) and instructions in their use\", Biometrics, 249-253, 1952), by e.p. administration in mouse is shown in Table 1.\nLD50 and fiducial limits, mg/Kg e.p., of the compounds of for-\nmula (I). Weil method N = 4, K = 4."}}}
{"smiles": "CC(=O)N[C@@H](CS)C(=O)O", "note": "[Acetylcysteine, acetylcysteine]", "values": [{"measurement": "Percentage drop of the tracing versus maximum peak (mucolytic activity index)", "setting": "[1]; after addition of 1 ml of a 10% solution at dilution 1/30", "value": 84, "unit": "Percentage"}, {"measurement": "Percentage drop of the tracing versus maximum peak (mucolytic activity index)", "setting": "[1]; after addition of 1 ml of a 10% solution at dilution 1/60", "value": 55, "unit": "Percentage"}]}
{"smiles": "CC(=O)SCCC(=O)OC(CC(=O)O)C[N+](C)(C)C", "note": "(centres unmarked) [ST-405, 3-thioacetyl propionyl-carnitine]", "values": [{"measurement": "Percentage variations ± s.e. of bronchial secretion versus basal values", "setting": "bronchial secretion; 1 hour after administration", "value": "+1.1 ± 0.03 Percentage"}, {"measurement": "Percentage variations ± s.e. of bronchial secretion versus basal values", "setting": "bronchial secretion; 2 hours after administration", "value": "+1.9 ± 0.04 Percentage"}, {"measurement": "Percentage variations ± s.e. of bronchial secretion versus basal values", "setting": "bronchial secretion; 4 hours after administration", "value": "+3.6 ± 0.05 Percentage"}, {"measurement": "LD50", "setting": "[2]", "value": 378, "unit": "mg/kg"}]}
{"smiles": "CC(=O)SC(C)CC(=O)OC(CC(=O)O)C[N+](C)(C)C", "note": "(centres unmarked) [ST-406, 3-thioacetyl butyryl carnitine]", "values": [{"measurement": "Percentage variations ± s.e. of bronchial secretion versus basal values", "setting": "bronchial secretion; 1 hour after administration", "value": "+1.4 ± 0.05 Percentage"}, {"measurement": "Percentage variations ± s.e. of bronchial secretion versus basal values", "setting": "bronchial secretion; 2 hours after administration", "value": "+1.9 ± 0.05 Percentage"}, {"measurement": "Percentage variations ± s.e. of bronchial secretion versus basal values", "setting": "bronchial secretion; 4 hours after administration", "value": "+3.4 ± 0.04 Percentage"}, {"measurement": "LD50", "setting": "[2]", "value": 97, "unit": "mg/kg"}]}
{"smiles": "CC(=O)SCCCCC(=O)OC(CC(=O)O)C[N+](C)(C)C", "note": "(centres unmarked) [ST-412, 5-thioacetyl pentanoyl-carnitine]", "values": [{"measurement": "Percentage variations ± s.e. of bronchial secretion versus basal values", "setting": "bronchial secretion; 1 hour after administration", "value": "+1.3 ± 0.04 Percentage"}, {"measurement": "Percentage variations ± s.e. of bronchial secretion versus basal values", "setting": "bronchial secretion; 2 hours after administration", "value": "+2.1 ± 0.05 Percentage"}, {"measurement": "Percentage variations ± s.e. of bronchial secretion versus basal values", "setting": "bronchial secretion; 4 hours after administration", "value": "+3.1 ± 0.03 Percentage"}, {"measurement": "LD50", "setting": "[2]", "value": 1540, "unit": "mg/kg"}]}
